Data set [1] concerns ApoE4-mediated toxicity. The data set can be described thus: Compound test in ApoE4 hitox yeast strain (PDR1 and PDR3 deleted), optical density at A600 after 24 hours. Type of data set: cell-based, Saccharomyces cerevisiae. As to conditions: A600, FIG. 10. The method, then: An ApoE4 hitox strain harboring 3-4 copies of the ApoE4 construct and with the drug-pump transcription factors PDR1 and PDR 3 deleted was used in this experiment. Cells were grown in raffinose; cells were diluted into galactose medium (to initiate expression of the expression construct). Test compounds were added to the cultures at various concentrations ranging from 0.25 μM to 32.0 μM; cells were grown for 24 hours after addition of the compounds, and the optical densities were then read at A600.

The test system of data set [2] is ApoE4-mediated toxicity. As to conditions: known from other experiments; cited from earlier work.
Data set [3] has as its system Ste3 endocytosis to the vacuole. The data set can be described thus: Ste3-mKate2 endocytosis assay, fluorescence microscopy. Particulars: 6-8 hours of induction with galactose, FIG. 13. Type of data set: cell-based, Saccharomyces cerevisiae. The text has this: The effect of ApoE on endocytosis in yeast was further analyzed using a Ste3-mKate2 assay. Ste3 is a yeast G-protein coupled receptor (GPCR) that natively undergoes endocytosis from the cell surface to the vacuole. When clathrin-mediated endocytosis is disrupted, Ste3 trafficking can be disrupted as well.
The trafficking of Ste3 was observed using fluorescence microscopy by overexpressing a fluorescently-tagged (mKate2) version of Ste3 from a pAG423 galactose-inducible plasmid. The ApoE4 hitox strain described above was transformed with the pAG423-Ste3-mKate2 plasmid. In addition, yeast strains as described in Example 4 harboring expression constructs encoding human neurodegenerative disease-associated proteins alpha-synuclein (α-syn intox) or Aβ (Kar2ss-Aβ strain described in Treusch, S., et al., Science. (2011), 334:1241-5) were also transformed with the pAG423-Ste3-mKate2 plasmid. A strain transformed with a Gal-GFP plasmid served as a negative control. […] (FIG. 13).

On to `Oc1c(I)cc(Cl)c2cccnc12` [clioquinol], for which the “ability to reduce ApoE4-mediated toxicity” value with ApoE4-mediated toxicity [1] (0.25 μM to 32.0 μM) is recorded as “able to reduce ApoE4-mediated toxicity”. Also, in the data set with ApoE4-mediated toxicity [1], the “concentrations at which ApoE4-mediated toxicity is reduced” value is “below 1.5 μM”. Moreover, the “toxicity of the compound itself to yeast” value with ApoE4-mediated toxicity [2] was “becomes toxic to yeast at high concentrations”.
In the case of “Aβ: human amyloid beta expressed in yeast (Kar2ss-Aβ strain)”, the “effect on Ste3 endocytosis” value in data set [3] is reported as “disruption of Ste3 endocytosis”.
